Measurements published in article PMC6271966, “Synthesis and Biological Activity of Some Bile Acid-Based Camptothecin Analogues” (Molecules, 2014).
Read-outs that look alike come from different tables or passages of the source.

Key:
[1] = Lactone stability in rat blood serum (HPLC); type: in vitro ADME
Experimental: Compounds E2, F2, G2, and H2 were dissolved in DMSO (100 μL, 4 mM/L) and incubated in rat blood serum (4 mL) at 37 °C. Aliquots were taken at different time points (0, 2, 4, 6, 8, 10, 12, and 24 h) and examined by HPLC, using CPT as the reference.

[2] = Body weight and surviving mice in the H22 in vivo study; parameters: species or system mouse; conditions: for Mice Number End of Study: 4 mice at start
Experimental: Anti-tumour activity screens of CPT-bile acid analogues were conducted in KM mice with H22 mouse liver tumours. […] These groups (n = 4) were treated with either vehicle (control), CPT, or the CPT-bile acid analogues. Mice received i.p. treatments once every two days.

[3] = system: human hepatoma cell line (SMMC-7721); experiment: MTT cytotoxicity assay, SMMC-7721; type: cell-based
Experimental: (§1) The cytotoxicity of these compounds against three cancer cell lines was assayed using a conventional microtitre plate tetrazolium cytotoxicity assay. The human hepatoma cancer cell line (SMMC-7721), the colon cancer cell line (HCT-116), and the human breast cancer cell line (MCF-7) were provided by The Chinese Academy of Sciences cell bank. These cells were plated at a density of 1 × 10^5 cells/mL and incubated in a 96-well late for 24 h (37 °C, 5% CO2). The cells were then exposed to various concentrations of the compounds (0.0032, 0.016, 0.08, 0.4, 2, 10, and 50 µM/mL) continuously for 72 h. After this incubation, MTT solution (20 μL, 5 mg/mL) was added to each well and incubated for a further 4 h before removing the media. Formazan crystals were then dissolved by the addition of DMSO (100 μL per well). After mixing, the absorbance was read at 540 nm on a microplate reader. These assays were performed in three independent experiments. Wells containing no drugs, or CPT, were used as negative and positive controls, respectively. The IC50 values, defined as the concentration of compounds that produced a 50% decrease in surviving cells, were calculated using the Logit-method.

[4] = system: human breast cancer cell line (MCF-7); experiment: MTT cytotoxicity assay, MCF-7; type: cell-based
Experimental: as §1

[5] = system: human colon cancer cell line (HCT-116); experiment: MTT cytotoxicity assay, HCT-116; type: cell-based
Experimental: as §1

H22 mouse liver tumours = experiment: In vivo anti-tumour activity, H22 mouse liver tumour model; conditions: H22 KM mice, i.p. every two days
Experimental: Anti-tumour activity screens of CPT-bile acid analogues were conducted in KM mice with H22 mouse liver tumours. Briefly, female mice weighing 18–22 g were subcutaneously inoculated at the right flank with a tumour cell suspension (1 × 10^6 cells) in 0.2 mL of phosphate-buffered saline. The mice were divided into subgroups 24 h after inoculation. These groups (n = 4) were treated with either vehicle (control), CPT, or the CPT-bile acid analogues. Mice received i.p. treatments once every two days. When the tumour weight of the control group reached 1.0–1.5 g, the mice were killed and the TIR (%) calculated.

[6] = in this project
Experimental: Preliminary anti-tumour activity studies of E2, G4, and H2 were evaluated in vivo in a mouse liver adenocarcinoma model (H22) and compared with CPT.

MCF-7 cells = experiment: Fluorescence microscopy of compound entry into MCF-7 cells; type: cell-based, human; conditions: data not shown
Experimental: (§2) Compound E2 (final concentrations of 10 µM/mL and […]) and CPT (final concentrations of 10 µM/mL and 20 µM/mL) were directly added to the cell culture medium and incubated for 1 h, 2 h or 4 h at 37 °C. The cells were then gently washed three times with physiological saline. Cellular fluorescence was imaged using a fluorescence microscope (Zeiss inverted Microscope Axiovert 200 equipped with a NIKON DS-FiL (Sendai, Japan). The images were taken using ultraviolet light.

SMMC-7721 cells = experiment: Fluorescence microscopy of compound entry into SMMC-7721 cells; type: cell-based, human; conditions: 10 or 20 µM, up to 4 h at 37 °C, ultraviolet light
Experimental: as §2

[7] = SMMC-7721, 72 h, read-out: In Vitro Cytotoxicity (IC50, µM) SMMC7721
[8] = MCF7, 72 h, read-out: In Vitro Cytotoxicity (IC50, µM) MCF-7
[9] = HCT-116, 72 h, read-out: In Vitro Cytotoxicity (IC50, µM) HCT-116

## CC[C@@]1(O)C(=O)OCc2c1cc1n(c2=O)Cc2cc3cc(OCCCOC(=O)CCC(C)C4CCC5C6CCC7C[C@H](O)CCC7C6C[C@H](O)C45)ccc3nc2-1 (stereo partly drawn) [Compound H2, 10-O-(3-O-(3′α,12′α-Dihydroxy-24′-carbonyl-5′β-cholan)-propyl)-20(S)-camptothecin]
[1]; rat, serum
  half-life at 97.6 µM: > 1440 min
[2]; dose 18.82 × 3 µmol/kg i.p.
  Mice Number End of Study: 3
[2]; dose 18.82 × 3 µmol/kg i.p., start of study 22.1 g
  Body Weight (g) End of Study: 21.1 g
[2]; dose 37.64 × 3 µmol/kg i.p.
  Mice Number End of Study: 4
[2]; dose 37.64 × 3 µmol/kg i.p., start of study 21.9 g
  Body Weight (g) End of Study: 18.2 g
[2]; dose 56.46 × 3 µmol/kg i.p.
  Mice Number End of Study: 3
[2]; dose 56.46 × 3 µmol/kg i.p., start of study 21.6 g
  Body Weight (g) End of Study: 20.0 g
[3]; [7]
  IC50: 2.74 µM
[4]; [8]
  IC50: 2.5 µM
[5]; [9]
  IC50: 0.8 µM
H22 mouse liver tumours; dose 18.82 × 3 µmol/kg
  TIR (%): 13.27%
H22 mouse liver tumours; dose 37.64 × 3 µmol/kg
  TIR (%): 57.99%
H22 mouse liver tumours; dose 56.46 × 3 µmol/kg
  TIR (%): 61.19%

## CC[C@@]1(O)C(=O)OCc2c1cc1n(c2=O)Cc2cc3ccccc3nc2-1 [CPT, Camptothecin]
[1]; rat blood serum, 37 °C, HPLC, up to 24 h, read-out: Half-Life (converted)
  half-life at 97.6 µM: 138 min
[2]; dose 27.45 × 3 µmol/kg i.p.
  Mice Number End of Study: 3
[2]; dose 27.45 × 3 µmol/kg i.p., start of study 21.4 g
  Body Weight (g) End of Study: 18.6 g
[6]
  maximum dose which the mouse can tolerate: 27.45 µmol/kg
[3]; MTT, 72 h exposure, SMMC-7721, read-out: In Vitro Cytotoxicity (IC50, µM) SMMC7721
  IC50: 0.56 µM
[4]; MCF7, MTT, 72 h exposure, MCF-7, read-out: In Vitro Cytotoxicity (IC50, µM) MCF-7
  IC50: 0.57 µM
MCF-7 cells
  Cellular fluorescence (accumulation in cells): no fluorescent signal
[5]; MTT, 72 h exposure, HCT-116, read-out: In Vitro Cytotoxicity (IC50, µM) HCT-116
  IC50: 0.52 µM
H22 mouse liver tumours; dose 27.45 × 3 µmol/kg
  TIR (%): 67.26%
SMMC-7721 cells
  Cellular fluorescence (accumulation in cells): no distinct fluorescence

## CC[C@@]1(OC(=O)CNC(=O)CCC(C)C2CCC3C4CCC5C[C@H](O)CC[C@]5(C)C4C[C@H](O)[C@]23C)C(=O)OCc2c1cc1n(c2=O)Cc2cc3ccccc3nc2-1 (stereo partly drawn) [Compound E2, Camptothecin-20 (S)-O-glycine Ester-[N-(3′α,12′α-dihydroxy-24′-carbonyl-5′β-cholane)]]
[1]; rat, serum
  half-life at 97.6 µM: > 1440 min
other
  melting point: 203 to 204 °C
[2]; dose 19.23 × 3 µmol/kg i.p.
  Mice Number End of Study: 4
[2]; dose 19.23 × 3 µmol/kg i.p., start of study 19.9 g
  Body Weight (g) End of Study: 21.9 g
[2]; dose 38.45 × 3 µmol/kg i.p.
  Mice Number End of Study: 4
[2]; dose 38.45 × 3 µmol/kg i.p., start of study 20.5 g
  Body Weight (g) End of Study: 21.5 g
[2]; dose 57.69 × 3 µmol/kg i.p.
  Mice Number End of Study: 4
[2]; dose 57.69 × 3 µmol/kg i.p., start of study 20.5 g
  Body Weight (g) End of Study: 20.6 g
[3]; [7]
  IC50: 0.36 µM
[4]; [8]
  IC50: 150 µM
MCF-7 cells
  Cellular fluorescence (accumulation in cells): no fluorescent signal
[5]; [9]
  IC50: 15.8 µM
H22 mouse liver tumours; dose 19.23 × 3 µmol/kg
  TIR (%): 4.09%
H22 mouse liver tumours; dose 38.45 × 3 µmol/kg
  TIR (%): 16.10%
H22 mouse liver tumours; dose 57.69 × 3 µmol/kg
  TIR (%): 40.13%
SMMC-7721 cells
  Cellular fluorescence (accumulation in cells): accumulated in the SMMC-7721 cells
